US8895585B2, “Nicotinamide derivative or salt thereof” (FUJIFILM Corporation, priority 2010, dated 2014)

Experiments:
[1] = tested on: THP-1 cells; assay: TNFα generation assay; type: cell-based, human; settings: Homo sapiens, THP-1, THP-1 cells; Table 22; read-out: IC50 in TNFα generation assay
Outline: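 Secreted TNFα in supernatant quantified by ELISA or AlphaLISA after 7 h culture on human IgG-coated wells (10 μg/ml coating). Cells were IFN-γ-differentiated THP-1 (10 ng/ml, 2 days), exposed to compound for 30 min at room temperature before plating.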

[2] = molecular target: T1, glutathione S-transferase (GST)-fused full-length human Syk protein (Homo sapiens, UniProt P43405); assay: Syk enzyme assay; type: biochemical; settings: Syk enzyme assay, Test Example 1; read-out: IC50 of Syk-inhibitory activity
T1 construct: (GST)-fused full-length human Syk protein; GST (glutathione S-transferase); purchased Carna Biosciences
Outline: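 GST-tagged full-length human Syk (baculovirus) preincubated with compound 15 min at room temperature (pH 7.0, 10 mM MgCl2), then reacted 40 min with 0.4 μM biotinylated peptide substrate and 27 μM ATP (final). Phosphorylation read by HTRF (615/665 nm) after EDTA stop; IC50 reported.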

IC50 [1] [nM] | IC50 [2] [nM] | Structure (SMILES)
< 65 | < 10 | CCc1nn(CC)c2ccc(Nc3nc(N[C@@H]4CCCC[C@@H]4N)c(F)cc3C(N)=O)cc12 [Example 006-452, 6-(((1R,2S)-2-aminocyclohexyl)amino)-2-((1,3-diethyl-1H-indazol-5-yl)amino)-5-fluoronicotinamide]
< 65 | < 10 | CCc1nn(CCOC)c2ccc(Nc3nc(N[C@@H]4CCCC[C@@H]4N)c(F)cc3C(N)=O)cc12 [Example 006-453, 6-(((1R,2S)-2-aminocyclohexyl)amino)-2-((3-ethyl-1-(2-methoxyethyl)-1H-indazol-5-yl)amino)-5-fluoronicotinamide]
65 to 130 | < 10 | CCc1nn(CCF)c2ccc(Nc3nc(N[C@@H]4CCCC[C@@H]4N)c(F)cc3C(N)=O)cc12 [Example 006-454, 6-(((1R,2S)-2-aminocyclohexyl)amino)-2-((3-ethyl-1-(2-fluoroethyl)-1H-indazol-5-yl)amino)-5-fluoronicotinamide]
65 to 130 | < 10 | CCc1nn(CC(F)F)c2ccc(Nc3nc(N[C@@H]4CCCC[C@@H]4N)c(F)cc3C(N)=O)cc12 [Example 006-455, 6-(((1R,2S)-2-aminocyclohexyl)amino)-2-((1-(2,2-difluoroethyl)-3-ethyl-1H-indazol-5-yl)amino)-5-fluoronicotinamide]
130 to 200 | < 10 | CCCc1nn(C)c2ccc(Nc3nc(N[C@@H]4CCCC[C@@H]4N)c(F)cc3C(N)=O)cc12 [Example 006-456, 6-(((1R,2S)-2-aminocyclohexyl)amino)-5-fluoro-2-((1-methyl-3-propyl-1H-indazol-5-yl)amino)nicotinamide]
130 to 200 | < 10 | CCCc1nn(CC)c2ccc(Nc3nc(N[C@@H]4CCCC[C@@H]4N)c(F)cc3C(N)=O)cc12 [Example 006-457, 6-(((1R,2S)-2-aminocyclohexyl)amino)-2-((1-ethyl-3-propyl-1H-indazol-5-yl)amino)-5-fluoronicotinamide]
130 to 200 | < 10 | CCCc1nn(CCOC)c2ccc(Nc3nc(N[C@@H]4CCCC[C@@H]4N)c(F)cc3C(N)=O)cc12 [Example 006-458, 6-(((1R,2S)-2-aminocyclohexyl)amino)-5-fluoro-2-((1-(2-methoxyethyl)-3-propyl-1H-indazol-5-yl)amino)nicotinamide]
65 to 130 | < 10 | CCCc1nn(CCF)c2ccc(Nc3nc(N[C@@H]4CCCC[C@@H]4N)c(F)cc3C(N)=O)cc12 [Example 006-459, 6-(((1R,2S)-2-aminocyclohexyl)amino)-5-fluoro-2-((1-(2-fluoroethyl)-3-propyl-1H-indazol-5-yl)amino)nicotinamide]
65 to 130 | < 10 | CCCc1nn(CC(F)F)c2ccc(Nc3nc(N[C@@H]4CCCC[C@@H]4N)c(F)cc3C(N)=O)cc12 [Example 006-460, 6-(((1R,2S)-2-aminocyclohexyl)amino)-2-((1-(2,2-difluoroethyl)-3-propyl-1H-indazol-5-yl)amino)-5-fluoronicotinamide]
65 to 130 | < 10 | CC(C)c1nn(C)c2ccc(Nc3nc(N[C@@H]4CCCC[C@@H]4N)c(F)cc3C(N)=O)cc12 [Example 006-461, 6-(((1R,2S)-2-aminocyclohexyl)amino)-5-fluoro-2-((3-isopropyl-1-methyl-1H-indazol-5-yl)amino)nicotinamide]
65 to 130 | < 10 | CCCc1nn(C)c2ccc(Nc3nc(N[C@H](CC4CC4)[C@H](C)N)c(F)cc3C(N)=O)cc12 [Example 006-464, 6-(((2R,3S)-3-amino-1-cyclopropylbutan-2-yl)amino)-5-fluoro-2-((1-methyl-3-propyl-1H-indazol-5-yl)amino)nicotinamide]
130 to 200 | < 10 | CCn1nc(C(C)C)c2cc(Nc3nc(N[C@H](CC4CC4)[C@H](C)N)c(F)cc3C(N)=O)ccc21 [Example 006-465, 6-(((2R,3S)-3-amino-1-cyclopropylbutan-2-yl)amino)-2-((1-ethyl-3-isopropyl-1H-indazol-5-yl)amino)-5-fluoronicotinamide]
65 to 130 | 10 to 50 | NC(=O)c1cc(F)c(N[C@@H]2CCCC[C@@H]2N)nc1Nc1cnc(N2CCOCC2)c(Cl)c1 [Example 006-466, 6-(((1R,2S)-2-aminocyclohexyl)amino)-2-((5-chloro-6-morpholinopyridin-3-yl)amino)-5-fluoronicotinamide]
< 65 | < 10 | CCn1ncc2cc(Nc3nc(N[C@H](COC)[C@H](C)N)c(F)cc3C(N)=O)ccc21 [Example 006-469, 6-(((2S,3S)-3-amino-1-methoxybutan-2-yl)amino)-2-((1-ethyl-1H-indazol-5-yl)amino)-5-fluoronicotinamide]
65 to 130 | 10 to 50 | COC[C@@H](Nc1nc(Nc2ccnc(OC)c2)c(C(N)=O)cc1F)[C@H](C)N [Example 006-470, 6-(((2S,3S)-3-amino-1-methoxybutan-2-yl)amino)-5-fluoro-2-((2-methoxypyridin-4-yl)amino)nicotinamide]
< 65 | < 10 | CCn1ncc2cc(Nc3nc(N[C@H](C4CC4)[C@H](C)N)c(F)cc3C(N)=O)ccc21 [Example 006-471, 6-(((1R,2S)-2-amino-1-cyclopropylpropyl)amino)-2-((1-ethyl-1H-indazol-5-yl)amino)-5-fluoronicotinamide]
65 to 130 | < 10 | NC(=O)c1cc(F)c(N[C@@H]2CCCC[C@@H]2N)nc1Nc1ccc2c(cnn2C2CC2)c1 [Example 006-472, 6-(((1R,2S)-2-aminocyclohexyl)amino)-2-((1-cyclopropyl-1H-indazol-5-yl)amino)-5-fluoronicotinamide]
< 65 | < 10 | NC(=O)c1cc(F)c(N[C@@H]2CCCC[C@@H]2N)nc1Nc1ccc2cnn(C3CC3)c2c1 [Example 006-473, 6-(((1R,2S)-2-aminocyclohexyl)amino)-2-((1-cyclopropyl-1H-indazol-6-yl)amino)-5-fluoronicotinamide]
65 to 130 | < 10 | NC(=O)c1cc(F)c(N[C@@H]2CCCC[C@@H]2N)nc1Nc1cccc2c1cnn2C1CC1 [Example 006-474, 6-(((1R,2S)-2-aminocyclohexyl)amino)-2-((1-cyclopropyl-1H-indazol-4-yl)amino)-5-fluoronicotinamide]
130 to 200 | < 10 | NC(=O)c1cc(F)c(N[C@@H]2CCCC[C@@H]2N)nc1Nc1ccc2c(c1)c(F)nn2C1CC1 [Example 006-475, 6-(((1R,2S)-2-aminocyclohexyl)amino)-2-((1-cyclopropyl-3-fluoro-1H-indazol-5-yl)amino)-5-fluoronicotinamide]
130 to 200 | < 10 | Cc1nn(C2CC2)c2ccc(Nc3nc(N[C@@H]4CCCC[C@@H]4N)c(F)cc3C(N)=O)cc12 [Example 006-477, 6-(((1R,2S)-2-aminocyclohexyl)amino)-2-((1-cyclopropyl-3-methyl-1H-indazol-5-yl)amino)-5-fluoronicotinamide]
65 to 130 | < 10 | CCc1nn(C2CC2)c2ccc(Nc3nc(N[C@@H]4CCCC[C@@H]4N)c(F)cc3C(N)=O)cc12 [Example 006-478, 6-(((1R,2S)-2-aminocyclohexyl)amino)-2-((1-cyclopropyl-3-ethyl-1H-indazol-5-yl)amino)-5-fluoronicotinamide]
130 to 200 | < 10 | C[C@H](N)[C@@H](CC1CC1)Nc1nc(Nc2ccc3cnn(C4CC4)c3c2)c(C(N)=O)cc1F [Example 006-480, 6-(((2R,3S)-3-amino-1-cyclopropylbutan-2-yl)amino)-2-((1-cyclopropyl-1H-indazol-6-yl)amino)-5-fluoronicotinamide]
< 65 | < 10 | Cc1ncc(Nc2nc(N[C@H](C3CC3)[C@H](C)N)c(F)cc2C(N)=O)cc1-n1nccn1 [Example 006-483, 6-(((1R,2S)-2-amino-1-cyclopropylpropyl)amino)-5-fluoro-2-((6-methyl-5-(2H-1,2,3-triazol-2-yl)pyridin-3-yl)amino)nicotinamide]
65 to 130 | 10 to 50 | COc1ncc(Nc2nc(N[C@@H]3CCCC[C@@H]3N)c(F)cc2C(N)=O)cc1F [Example 006-484, 6-(((1R,2S)-2-aminocyclohexyl)amino)-5-fluoro-2-((5-fluoro-6-methoxypyridin-3-yl)amino)nicotinamide]
65 to 130 | < 10 | Cc1nn(C)c2cc(Nc3nc(N[C@H](CC4CC4)[C@H](C)N)c(F)cc3C(N)=O)ccc12 [Example 006-485, 6-(((2R,3S)-3-amino-1-cyclopropylbutan-2-yl)amino)-2-((1,3-dimethyl-1H-indazol-6-yl)amino)-5-fluoronicotinamide]
130 to 200 | < 10 | CCn1nc(C)c2ccc(Nc3nc(N[C@H](CC4CC4)[C@H](C)N)c(F)cc3C(N)=O)cc21 [Example 006-486, 6-(((2R,3S)-3-amino-1-cyclopropylbutan-2-yl)amino)-2-((1-ethyl-3-methyl-1H-indazol-6-yl)amino)-5-fluoronicotinamide]
130 to 200 | < 10 | COCCn1nc(C)c2ccc(Nc3nc(N[C@H](CC4CC4)[C@H](C)N)c(F)cc3C(N)=O)cc21 [Example 006-487, 6-(((2R,3S)-3-amino-1-cyclopropylbutan-2-yl)amino)-5-fluoro-2-((1-(2-methoxyethyl)-3-methyl-1H-indazol-6-yl)amino)nicotinamide]
